Test results published in patent publication US7531577B2, “Arylsulfonamidyl tetralin derivatives and uses thereof” (Roche Palo Alto LLC, priority 2006, dated 2009).
Structures can show the parent of a compound that is named as a salt.

Test system: not given
Assay: not given
Conditions: not given

First: CNCC1CCCc2cc(NS(=O)(=O)c3cccc(F)c3)ccc21 (stereo not shown) (as salt: oxalate) [Compound 5, 3-Fluoro-N-(5-methylaminomethyl-5,6,7,8-tetrahydro-naphthalen-2-yl)-benzenesulfonamide]
Second: CC(=O)NCC1CCCc2cc(NS(=O)(=O)c3cccc(F)c3)ccc21 (stereo not shown) [Compound 8, N-[6-(3-Fluoro-benzenesulfonylamino)-1,2,3,4-tetrahydro-naphthalen-1-ylmethyl]-acetamide]
The melting point of the first is lower: 135 to 136 °C for the first, 136 to 137 °C for the second.

Compared with `CN(c1ccc2c(c1)CCCC2CN)S(=O)(=O)c1cccc(F)c1` (stereo not shown) (as salt: oxalate) [Compound 9, N-(5-Aminomethyl-5,6,7,8-tetrahydro-naphthalen-2-yl)-3-fluoro-N-methyl-benzenesulfonamide], `NC(=O)NCC1CCCc2cc(NS(=O)(=O)c3cccc(F)c3)ccc21` (stereo not shown) [Compound 6, 3-Fluoro-N-(5-ureidomethyl-5,6,7,8-tetrahydro-naphthalen-2-yl)-benzenesulfonamide] is lower in melting point: 176 to 177 °C for the first, 162 to 163 °C for the second.

First: NCC1CCCc2cc(NS(=O)(=O)c3ccccc3)ccc21 (stereo not shown) [Compound 2, N-(5-Aminomethyl-5,6,7,8-tetrahydro-naphthalen-2-yl)-benzenesulfonamide]
Second: O=CNCC1CCCc2cc(NS(=O)(=O)c3cccc(F)c3)ccc21 (stereo not shown) [Compound 7, 3-Fluoro-N-(5-formylaminomethyl-5,6,7,8-tetrahydro-naphthalen-2-yl)-benzenesulfonamide]
The melting point of the first is higher: 164 to 165 °C for the first, 143 to 144 °C for the second.

Target: T1, recombinant human 5-HT6 receptor (Homo sapiens, UniProt P50406)
T1 construct: expressed in transfected cells; membranes
T1 sequence (P50406 whole entry): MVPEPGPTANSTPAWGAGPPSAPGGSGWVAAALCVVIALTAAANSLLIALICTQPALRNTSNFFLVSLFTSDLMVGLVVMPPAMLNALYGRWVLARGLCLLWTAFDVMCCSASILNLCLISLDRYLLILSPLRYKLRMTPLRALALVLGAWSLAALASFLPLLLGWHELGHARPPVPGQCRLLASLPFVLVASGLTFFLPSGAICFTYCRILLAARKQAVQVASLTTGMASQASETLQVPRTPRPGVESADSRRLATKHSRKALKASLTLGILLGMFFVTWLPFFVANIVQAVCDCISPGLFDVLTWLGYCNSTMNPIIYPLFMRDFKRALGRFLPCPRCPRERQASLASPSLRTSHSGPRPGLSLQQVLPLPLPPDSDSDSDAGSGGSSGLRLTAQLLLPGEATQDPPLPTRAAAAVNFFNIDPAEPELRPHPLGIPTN
Assay: Radioligand binding, [3H]LSD competition in membranes of HEK293 cells expressing 5-HT6
Conditions: [3H]LSD displacement, pH 7.4, 37° C., read-out: pKi for 5-HT6 (converted)
Description: The binding activity of compounds of this invention in vitro was determined as follows. Duplicate determinations of 5-HT6 ligand affinity were made by competing for binding of [^3H]LSD in cell membranes derived from HEK293 cells stably expressing recombinant human 5-HT6 receptor. Duplicate determinations of 5-HT2A ligand affinity were made by competing for binding of [^3H]Ketanserin (3-(2-(4-(4-fluorobenzoyl)piperidinol)ethyl)-2,4(1H,3H)-quinazolinedione) in cell membranes derived from CHO-K1 cells stably expressing recombinant human 5-HT2A receptor. Membranes were prepared from HEK 293 cell lines by the method described by Monsma et al., Molecular Pharmacology, Vol. 43 pp. 320-327 (1993), and from CHO-K1 cell lines as described by Bonhaus et al., Br J Pharmacol. June; 115(4):622-8 (1995).
For estimation of affinity at the 5-HT6 receptor, all determinations were made in assay buffer containing 50 mM Tris-HCl, 10 mM MgSO4, 0.5 mM EDTA, 1 mM ascorbic acid, pH 7.4 at 37° C., in a 250 microliter reaction volume. […]
Assay tubes containing [^3H] […] LSD or [^3H]Ketanserin were determined as radioactive counts per minute using Packard TopCount.
Displacement of [^3H]LSD or [^3H]Ketanserin from the binding sites was quantified by fitting concentration-binding data to a 4-parameter logistic equation: […]

Compound `CNCC1CCCc2cc(NS(=O)(=O)c3ccccc3)ccc21` (stereo not shown) [N-(5-Methylaminomethyl-5,6,7,8-tetrahydro-naphthalen-2-yl)-benzenesulfonamide] has a Ki of about 138 pM.
